Read-outs that look alike come from different tables or passages of the source.
How the values were obtained:
[1] = Rat tolerance/dependence study, 28 day repeated dosing and withdrawal
[2] = IV self-administration substitution study in heroin-maintained primates (FR 30)
[3] = rat, in vivo
[4] = Dose-finding study: lever pressing for food (FR 10); details: two monkeys
[5] = Pretreatment study: effect on heroin self-administration; type: in vivo, rhesus monkeys
[6] = Cue-induced reinstatement (relapse) in heroin addicted rats; type: in vivo, male Long-Evans hooded rats

| SMILES | predominant behavioral and physical effects during the dosing phase ([1]; 0.3 mg/kg s.c. four times per day) | tolerance during dosing for 28 days ([1]; 0.3 and 3 mg/kg s.c. four times per day) | physical dependence upon cessation of dosing ([1]; 0.3 and 3 mg/kg s.c. four times per day, 28 days) | effect on animal body weight, food and water intake or body temperature ([1]; 0.3 and 3 mg/kg s.c. four times per day, on-dose or withdrawal phase) | main behavioral and physical signs during the dosing phase ([1]; higher dose, 3 mg/kg s.c. four times per day) | Infusions per session (mean ± SEM, N = 4) ([2]; 0.01 mg/kg/infusion IV) | Infusions per session (mean ± SEM, N = 4) ([2]; 0.1 mg/kg/infusion IV) | t-1/2 ([3]; po, 10 mg/kg) [h] | t-1/2 ([3]; sc, 3 mg/kg) [h] | average rate of responding for food ([4]; 0.0001 mg/kg IV) [responses per second] | average rate of responding for food ([4]; 0.001 mg/kg IV) [responses per second] | average rate of responding for food ([4]; 0.01 mg/kg IV) [responses per second] | average rate of responding for food ([4]; 0.1 mg/kg IV) [responses per second] | Heroin infusions per session (mean ± SEM, N = 4) ([5]; pretreatment 0.1 mg/kg IV 15 minutes prior) | Heroin infusions per session (mean ± SEM, N = 4) ([5]; pretreatment 1.0 mg/kg IV 15 minutes prior) | Heroin infusions per session (mean ± SEM, N = 4) ([5]; pretreatment 1.0 mg/kg SC (100% PEG) 15 minutes prior) | Active lever presses during the reinstatement test session ([6]; 1 mg/kg s.c. 30 minutes pre-session) | Active lever presses during the reinstatement test session ([6]; 3 mg/kg s.c. 30 minutes pre-session) | Active lever presses during the reinstatement test session ([6]; 10 mg/kg s.c. 30 minutes pre-session) | tolerance and dependence ([1]; 30 mg/kg orally twice per day, 28 days) |
| --- | --- | --- | --- | --- | --- | --- | --- | --- | --- | --- | --- | --- | --- | --- | --- | --- | --- | --- | --- | --- |
| O=C1CN2c3c(cccc3[C@@H]3CN(CCCOc4ccc(F)cc4)CC[C@@H]32)N1 [Example 1, (6bR,10aS)-8-(3-(4-fluorophenoxy)propyl)-6b,7,8,9,10,10a-hexahydro-1H-pyrido[3′,4′:4,5]pyrrolo[1,2,3-de]quinoxalin-2(3H)-one] | hunched posture, Straub tail and piloerection | does not produce tolerance | not to produce a syndrome of physical dependence | no significant effect | hunched posture, subdued behavior, Straub tail, tail rattle and piloerection | 0.6 ± 0.2 | 1.5 ± 0.3 | 3.1 | 9.5 | 0.94±0.01 | 0.86±0.11 | 0.97±0.21 | 0.98±0.24 | 24.8 ± 0.8 | 23.3 ± 2.8 | 24.5 ± 1.9 | 22.64 | 31.17 | 29.50 |  |
| CN1CC[C@]23c4c5ccc(O)c4O[C@H]2[C@@H](O)C=C[C@H]3[C@H]1C5 [Morphine, morphine, reference compound] |  |  |  |  |  |  |  |  |  |  |  |  |  |  |  |  |  |  |  | clear signs of tolerance and dependence |

— patent US20220088014A1 (priority 2019, published 2022)
